Here are results for eight compounds from PubChem BioAssay AID1259407 (Chemical Carcinogenesis Research Information System (CCRIS), 2018).

Active and inactive are the calls of the source. The rule behind the calls is not given here.

This data set has as its system CCRIS mutagenicity, Ames/micronucleus/aberration tests. In words: CCRIS mutagenicity studies.
The mark [1] stands for this setting: Test System: AMES SALMONELLA TYPHIMURIUM, Strain/Indicator: TA98, Metabolic Activation: NONE, Method: PREINCUBATION

With `CC(=O)Nc1ccc(C(=O)[C@H]2O[C@H]2c2ccccc2)cc1`, the mutagenic call by setting is: (Test System: AMES SALMONELLA TYPHIMURIUM, Strain/Indicator: TA98, Metabolic Activation: NONE, Method: STANDARD PLATE) “inactive; negative”; (Test System: AMES SALMONELLA TYPHIMURIUM, Strain/Indicator: TA98, Metabolic Activation: RAT, LIVER, S-9, AROCLOR 1254, Method: STANDARD PLATE) “inactive; negative”; (Test System: AMES SALMONELLA TYPHIMURIUM, Strain/Indicator: TA100, Metabolic Activation: NONE, Method: STANDARD PLATE) “active; positive”; (Test System: AMES SALMONELLA TYPHIMURIUM, Strain/Indicator: TA100, Metabolic Activation: RAT, LIVER, S-9, AROCLOR 1254, Method: STANDARD PLATE) “active; positive”.
As to `O=C(O)c1cc([N+](=O)[O-])ccc1[N+](=O)[O-]`, the mutagenic call is, setting by setting: under setting [1], “active; positive”; (Test System: AMES SALMONELLA TYPHIMURIUM, Strain/Indicator: TA98, Metabolic Activation: RAT, LIVER, S-9, KANECHLOR 500, Method: PREINCUBATION) “active; positive”; (Test System: AMES SALMONELLA TYPHIMURIUM, Strain/Indicator: TA100, Metabolic Activation: RAT, LIVER, S-9, KANECHLOR 500, Method: PREINCUBATION) “inactive; negative”.
`ONc1ccc(Br)cc1`: the mutagenic call (Test System: E. COLI, Strain/Indicator: WP2 UVRA, Metabolic Activation: NONE, Method: FLUCTUATION TEST) is “inactive; negative”.
For `CC(C)C#N`, the mutagenic call is “inactive; negative” (End Point: In vitro chromosomal aberrations, Test System: Chinese hamster lung (CHL/IU) cells, Metabolic Activation: Rat, Liver, S9, Phenobarbital and 5,6-benzoflavone); “active; positive” (Test System: Ames Salmonella typhimurium, Strain/Indicator: TA100, Metabolic Activation: None, Method: Preincubation); “active; positive” (Test System: Ames Salmonella typhimurium, Strain/Indicator: TA100, Metabolic Activation: Rat, Liver, S9, Sodium phenobarbital and 5,6-benzoflavone (10%), Method: Preincubation); “inactive; negative” (Test System: Ames Salmonella typhimurium, Strain/Indicator: TA1535, Metabolic Activation: None, Method: Preincubation); “active; positive” (Test System: Ames Salmonella typhimurium, Strain/Indicator: TA1537, Metabolic Activation: None, Method: Preincubation); “active; positive” (Test System: E. coli, Strain/Indicator: WP2uvrA/pKM101, Metabolic Activation: None, Method: Preincubation). Also, the mutagenic call (Test System: E. coli, Strain/Indicator: WP2uvrA/pKM101, Metabolic Activation: Rat, Liver, S9, Sodium phenobarbital and 5,6-benzoflavone (10%), Method: Preincubation) is “active; positive”.
Take `Nc1nc(OCc2ccccc2)c2[nH]cnc2n1`: the mutagenic call is “active; positive” (Test System: Mouse lymphoma, Strain/Indicator: L5178Y (tk+/tk-), Metabolic Activation: None, Method: Suspension/plate) and “inconclusive” (Test System: Mouse lymphoma, Strain/Indicator: L5178Y (tk+/tk-), Metabolic Activation: Rat, Liver, S-9, Aroclor 1254, Method: Suspension/plate).
For `O=C(Cl)c1c(Cl)cccc1Cl`, the mutagenic call is “active; positive” under setting [1]; “active; positive” (Test System: AMES SALMONELLA TYPHIMURIUM, Strain/Indicator: TA98, Metabolic Activation: RAT LIVER S-9, PCB, Method: PREINCUBATION); “active; positive” (Test System: AMES SALMONELLA TYPHIMURIUM, Strain/Indicator: TA100, Metabolic Activation: NONE, Method: PREINCUBATION); “active; positive” (Test System: AMES SALMONELLA TYPHIMURIUM, Strain/Indicator: TA100, Metabolic Activation: RAT LIVER S-9, PCB, Method: PREINCUBATION); “inactive; negative” (Test System: AMES SALMONELLA TYPHIMURIUM, Strain/Indicator: TA104, Metabolic Activation: NONE, Method: PREINCUBATION); “active; positive” (Test System: AMES SALMONELLA TYPHIMURIUM, Strain/Indicator: TA104, Metabolic Activation: RAT LIVER S-9, PCB, Method: PREINCUBATION). The mutagenic call (Test System: E.COLI, Strain/Indicator: WP2 UVRA, Metabolic Activation: NONE, Method: PREINCUBATION) is “active; positive” and the mutagenic call (Test System: E.COLI, Strain/Indicator: WP2 UVRA, Metabolic Activation: RAT LIVER S-9, PCB, Method: PREINCUBATION) was “active; positive”.
As for `CN(C)c1nc2c3cccnc3ccc2n1C`, the mutagenic call was “active; positive” (Test System: AMES SALMONELLA TYPHIMURIUM, Strain/Indicator: TA98, Metabolic Activation: RAT, LIVER, S-9, AROCLOR 1254, Method: PREINCUBATION) and “active; positive” (Test System: AMES SALMONELLA TYPHIMURIUM, Strain/Indicator: TA100, Metabolic Activation: RAT, LIVER, S-9, AROCLOR 1254, Method: PREINCUBATION).
`Cc1c([N+](=O)[O-])ccc2ccccc12`: the mutagenic call under setting [1] is “active; positive”.
